The subject of this test is Human immunodeficiency virus 1. Kind of test: Antiviral activity against HIV1 infected in human MT4 cells assessed as inhibition of virus-induced cytopathicity. It is filed as functional, organism-based. To be noted: Human immunodeficiency virus 1, MT4.

In the case of `CC(C)=CCn1cc2c(c1)S(=O)(=O)c1cc(Cl)ccc1NC2=O`, the EC50 was found to be 300 nM.

The EC50 is the midpoint of the concentration-response curve.

The values are drawn from ChEMBL document CHEMBL1154495, “1,5-Benzothiazepine, a versatile pharmacophore: a review” (Eur J Med Chem, 2008).
